Data from the supplement of paper PMC10307832.

Assays:
Assay in all cases: relative viability (nuclei count vs DMSO), 5 days (fraction); higher = more cells survive
[1] = compound: C1=CC2=C(C=CC(=C2)C=C3C(=O)NC(=NCC4=CC=CS4)S3)N=C1 [RO-3306] + COc1cccc2cc(-c3nc([C@H]4CC[C@H](C(=O)O)CC4)n4ncnc(N)c34)[nH]c12 [OSI-027] (partner 0.5 µM)
How it was run: (§1)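 Relative viability equals treated-well nuclei counts divided by vehicle-well nuclei counts. Counts came from 4× images of lung cancer cell lines grown in 1536-well plates for 5 days after pin-tool dosing on the day after seeding. Dosing used one drug alone or a fixed anchor-drug dose plus five library-drug doses (not always all listed) in √10 steps, and values are medians of duplicate plates.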

[2] = compound: C1=CC2=C(C=CC(=C2)C=C3C(=O)NC(=NCC4=CC=CS4)S3)N=C1 [RO-3306] + O=C(CCCCCCC(=O)Nc1ccccc1)NO [Vorinostat] (partner 1 µM)
How it was run: as §1

[3] = compound: O=S(=O)(c1ccccc1)N(CC(F)(F)F)c1ccc(C(O)(C(F)(F)F)C(F)(F)F)cc1 + COc1cc2c(Oc3ccc(NC(=O)C4(C(=O)Nc5ccc(F)cc5)CC4)cc3F)ccnc2cc1OCCCN1CCOCC1 [Foretinib] (partner 0.25 µM)
How it was run: as §1

[4] = compound: O=S(=O)(c1ccccc1)N(CC(F)(F)F)c1ccc(C(O)(C(F)(F)F)C(F)(F)F)cc1 + CS(=O)(=O)N1CCN(Cc2cc3nc(-c4cccc5[nH]ncc45)nc(N4CCOCC4)c3s2)CC1 [Pictilisib] (partner 1 µM)
How it was run: as §1

[5] = compound: O=S(=O)(c1ccccc1)N(CC(F)(F)F)c1ccc(C(O)(C(F)(F)F)C(F)(F)F)cc1 + O=C(c1cc(Cc2n[nH]c(=O)c3ccccc23)ccc1F)N1CCN(C(=O)C2CC2)CC1 [Olaparib] (partner 8 µM)
How it was run: as §1

Cell Line	relative viability ([1]; first compound 0.01 µM)	relative viability ([1]; first compound 0.03162 µM)	relative viability ([1]; first compound 0.1 µM)	relative viability ([1]; first compound 0.3162 µM)	relative viability ([1]; first compound 1 µM)	relative viability ([2]; first compound 0.01 µM)	relative viability ([2]; first compound 0.03162 µM)	relative viability ([2]; first compound 0.1 µM)	relative viability ([2]; first compound 0.3162 µM)	relative viability ([2]; first compound 1 µM)	relative viability ([3]; first compound 0.8 µM)	relative viability ([3]; first compound 2.53 µM)	relative viability ([3]; first compound 8 µM)	relative viability ([4]; first compound 0.8 µM)	relative viability ([4]; first compound 2.53 µM)	relative viability ([4]; first compound 8 µM)	relative viability ([5]; first compound 0.8 µM)	relative viability ([5]; first compound 2.53 µM)	relative viability ([5]; first compound 8 µM)
PC-14	0.895	0.609	0.76	1.37	0.86	1.03	0.682	0.72	0.796	0.682	1.11	1.09	0.988	0.743	0.557	0.339	0.201	0.198	0.204
RERF-LC-KJ	0.632	0.53	0.556	0.598	0.556	0.725	0.64	0.67	0.687	0.63	0.816	0.746	0.751	0.557	0.453	0.5	0.853	0.893	0.88
SK-LU-1	0.283	0.285	0.325	0.314	0.339	0.854	0.711	0.786	0.786	0.605	0.716	0.857	0.695	0.531	0.454	0.594	0.446	0.472	0.433
SK-MES-1	0.657	0.558	0.693	0.794	0.612	1.35	1.12	1.12	1.32	1.08	0.723	0.728	0.767	0.25	0.235	0.271	0.743	0.728	0.579
SW 1573	0.683		0.603	0.607	0.578	0.67	0.598	0.738	0.715	0.763	0.954	0.898	1.04	0.504	0.38	0.45	0.527	0.43	0.514
